Blank lines part the entries; values can stand above or below the compound they belong to.
Experiments:
[1] = target: T1, soluble guanylate cyclase (sGC) (Bos taurus, UniProt P16068); test: Activation of the soluble guanylate cyclase (cGMP enzyme immunoassay); format: biochemical, bovine; conditions: n-fold stimulation of basal enzyme activity
T1 construct: The sGC which was employed had been isolated from bovine lung; from tissue; host or cells: bovine lung
T1 sequence (P16068 1-619): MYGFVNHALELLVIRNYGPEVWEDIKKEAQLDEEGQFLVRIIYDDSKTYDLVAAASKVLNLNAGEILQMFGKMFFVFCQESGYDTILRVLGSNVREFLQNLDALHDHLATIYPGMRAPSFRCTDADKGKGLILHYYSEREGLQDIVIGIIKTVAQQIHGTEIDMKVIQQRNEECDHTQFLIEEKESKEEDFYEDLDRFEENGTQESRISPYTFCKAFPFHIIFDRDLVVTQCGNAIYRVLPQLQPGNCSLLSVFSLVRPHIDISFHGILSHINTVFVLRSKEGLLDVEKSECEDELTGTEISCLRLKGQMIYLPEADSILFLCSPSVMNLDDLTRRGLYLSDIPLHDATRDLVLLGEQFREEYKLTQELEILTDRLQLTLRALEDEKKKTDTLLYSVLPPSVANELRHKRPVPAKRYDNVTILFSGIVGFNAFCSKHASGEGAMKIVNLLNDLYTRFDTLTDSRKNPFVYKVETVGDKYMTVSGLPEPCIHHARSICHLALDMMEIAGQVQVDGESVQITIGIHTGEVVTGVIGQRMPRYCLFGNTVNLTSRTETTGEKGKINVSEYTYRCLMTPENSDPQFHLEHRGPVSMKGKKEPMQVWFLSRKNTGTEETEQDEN
T1 sequence (P19687 1-691 partner): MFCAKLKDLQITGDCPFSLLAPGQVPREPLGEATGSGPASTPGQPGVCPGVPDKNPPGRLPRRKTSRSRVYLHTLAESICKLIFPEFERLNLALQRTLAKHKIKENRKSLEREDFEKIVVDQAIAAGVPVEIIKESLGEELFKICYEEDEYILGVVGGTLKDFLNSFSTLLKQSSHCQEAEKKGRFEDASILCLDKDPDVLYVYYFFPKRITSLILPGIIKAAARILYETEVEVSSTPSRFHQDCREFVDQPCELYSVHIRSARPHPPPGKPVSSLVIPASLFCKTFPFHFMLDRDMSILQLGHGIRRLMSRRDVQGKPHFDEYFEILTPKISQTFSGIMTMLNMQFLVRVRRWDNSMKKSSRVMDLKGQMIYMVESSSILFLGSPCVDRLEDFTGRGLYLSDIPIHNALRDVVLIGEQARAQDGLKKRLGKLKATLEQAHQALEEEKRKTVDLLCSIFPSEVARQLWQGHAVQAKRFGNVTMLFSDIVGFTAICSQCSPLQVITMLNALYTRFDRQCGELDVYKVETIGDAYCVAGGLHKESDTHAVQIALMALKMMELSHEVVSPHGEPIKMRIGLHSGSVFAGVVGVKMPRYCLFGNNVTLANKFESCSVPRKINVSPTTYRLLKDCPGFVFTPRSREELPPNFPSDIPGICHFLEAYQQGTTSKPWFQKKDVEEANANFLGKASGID
Protocol: The activation of the soluble guanylate cyclase (sGC) which catalyzes the conversion of guanosine triphosphate (GTP) into cyclic guanosine monophosphate (cGMP) and pyrophosphate, by the compounds according to the invention was quantified with the aid of an enzyme immunoassay (EIA) from Amersham. For this purpose the substances to be tested were initially incubated with sGC in microtiter plates, and the amount of the cGMP formed was then determined.
The sGC which was employed had been isolated from bovine lung (see Methods in Enzymology, Volume 195, p. 377). The test solutions (100 μl per well) contained 50 mM triethanolamine (TEA) buffer (pH 7.5), 3 mM MgCl2, 3 mM reduced glutathione (GSH), 0.1 mM GTP, 1 mM 3-isobutyl-1-methylxanthine (IBMX), suitably diluted enzyme solution and the substance to be tested or, in the control experiments, the solvent. The substances to be tested were dissolved in dimethyl sulfoxide (DMSO) and the solution was diluted with DMSO/water, so that the final concentration (c) of the substance to be tested in the test solution had the value indicated in the table. The DMSO concentration in the test solution was 5% (v/v). The reaction was initiated by addition of the sGC. The reaction mixture was incubated at 37° C. for 15 to 20 minutes and then stopped by ice-cooling and addition of the stop reagent (50 mM EDTA, pH 8.0). An aliquot of 50 μl was taken and used for determining the cGMP content using the acetylation protocol of the Amersham cGMP-EIA kit. The absorption of the samples was measured at 450 nm (reference wavelength 620 nm) in a microtiter plate reader. The cGMP concentration was determined using a standard curve which was obtained under the same test conditions. The activation of sGC by a test substance is given as the n-fold stimulation of the basal enzyme activity which was found in the control experiments (using solvent instead of test substance) (calculated using the formula n-fold stimulation=[cGMP]test substance/[cGMP]control).

rat aorta rings = test: Relaxation of rat aorta (phenylephrine-precontracted rings); format: cell-based, rat (Wistar-Kyoto); conditions: 50% relaxation of phenylephrine (1 μM) contraction
Source text: For this test, normotensive male Wistar-Kyoto rats were sacrificed by a blow to the neck. The abdominal cavity and the thorax were opened by a medium stemotomy. The descending aorta was subsequently removed, freed of connective tissue and divided into 8 rings of a length of approximately 4 mm. The tip of a pair of tweezers was introduced into the lumen of 4 of the 8 rings. The endothelium was removed by carefully rolling the rings over the tip of the pair of tweezers. All 8 aorta rings (4 with endothelium and 4 without endothelium) were subsequently suspended in an organ bath (Schuler-Organbad; Hugo Sachs Elektronik) at a constant temperature of 37° C. for the isometric determination of the contractile tone. For 30 minutes, the rings were calibrated at a resting tension of 0.1 g in carbonated (95% O2; 5% CO2) Krebs-Henseleit solution (composition: Na^+ 144.0 mM; K^+ 5.9 mM; Cl^− 126.9 mM; Ca^2+ 1.6 mM; […] 1.2 mM; H2PO4^− 1.2 mM; SO4^2− 1.2 mM; HCO3^− 25.0 mM; D-glucose 11.1 mM) of pH 7.4. Additionally, 1 μmol/l of indomethacin were added to the Krebs-Henseleit solution to inhibit prostaglandin biosynthesis. The rings were subsequently precontracted by addition of phenylephrine (concentration in the solution: 1 μM) and the endothelium-dependent relaxation or the functional loss of the endothelium was tested by addition of acetylcholine (concentration in the solution: 1 μM). After a 30-minute washing period, the rings were then again precontracted by addition of phenylephrine (1 μM), and the relaxing action of the test substances of the formula I was determined by administration of cumulative doses of the latter. The data were evaluated by standard methods. Given is the concentration IC50 by which contraction is inhibited by 50% (50% relaxation).

pig = test: Hemodynamic effect in the pig; format: in vivo, pig (German landrace); conditions: 10 mg/kg i.d., anesthetized pigs
Protocol: Three pigs (German landrace) were anesthetized (Ketamine 20 mg/kg i.m., Methomidate 8 mg/kg i.p., Xylazine 2.5 mg/kg i.m. and Pentobarbital 25 mg/kg i.v. as a bolus plus 0.16 mg/kg per minute). The trachea was intubated and the animals were given artificial respiration with air. Oxygen was added to keep the blood gas parameters in the normal range. To record the blood pressure (BP; BP(s)=systolic blood pressure, BP(d)=diastolic blood pressure) by means of a Statham 23 Db pressure transducer a catheter was inserted into the right A. Femoralis. The left ventricular pressure (LVP), the left ventricular end-diastolic pressure (LVEDP), the contractility (dP/dt) and the heart rate (HR) were determined with a Millar PC 350 catheter “tip manometer” which was inserted into the […] ventricle. After a stabilization period of the hemodynamic parameters of 30 minutes the test substance was administered in the indicated dose into the exposed duodenum by means of a catheter. The determined data were evaluated according to standard methods. Given are the means and the standard deviations (M±SEM) of the starting values and of the maximal changes of the individual parameters (=maximal effects).

SMILES: COc1cc(NS(=O)(=O)c2ccc(Cl)cc2)c(C(=O)Nc2ccc(S(=O)(=O)N3CCSCC3)cc2)cc1OC [Example 59, 2-(4-Chloro-phenylsulfonylamino)-4,5-dimethoxy-N-(4-(thiomorpholine-4-sulfonyl)-phenyl)-benzamide]
n-fold stimulation ([1]; concentration c 50 μM): 34.8
IC50 (rat aorta rings; ring with endothelium): 520 nM
IC50 (rat aorta rings; ring without endothelium): 270 nM

SMILES: COc1cc(NS(=O)(=O)c2ccc(Cl)cc2)c(C(=O)Nc2ccc(S(=O)(=O)N3C[C@@H](C)O[C@@H](C)C3)cc2)cc1OC [Example 88, 2-(4-Chloro-phenylsulfonylamino)-N-(4-(cis-2,6-dimethyl-morpholine-4-sulfonyl)-phenyl)-4,5-dimethoxy-benzamide]
BP(d) duration of action (pig): >0.125 days
BP(s) duration of action (pig): >10800 s
HR duration of action (pig): >180 min
LVEDP duration of action (pig): >180 min
dP/dtmax duration of action (pig): >180 min
dP/dtmax maximal alteration (pig; contractility, M±SEM): −633 ± 33 mm Hg/sec
BP(d) maximal alteration (pig; diastolic blood pressure, M±SEM): −20 ± 8 mm Hg
HR maximal alteration (pig; heart rate, M±SEM): −8 ± 2 beats/min
LVEDP maximal alteration (pig; left ventricular end-diastolic pressure, M±SEM): −1.3 ± 0.3 mm Hg
BP(s) maximal alteration (pig; systolic blood pressure, M±SEM): −23 ± 6 mm Hg
n-fold stimulation ([1]; concentration c 50 μM): 24.4
IC50 (rat aorta rings; ring with endothelium): 670 nM
IC50 (rat aorta rings; ring without endothelium): 290 nM

SMILES: O=C(Nc1ccc(S(=O)(=O)N2CCOCC2)cc1)c1cc(Cl)ccc1NS(=O)(=O)c1ccc(Cl)s1 [Example 129, 5-Chloro-2-(5-chloro-thiophene-2-sulfonylamino)-N-(4-(morpholine-4-sulfonyl)-phenyl)-benzamide]
n-fold stimulation ([1]; concentration c 50 μM): 8.6
IC50 (rat aorta rings; ring with endothelium): 460 nM
IC50 (rat aorta rings; ring without endothelium): 310 nM

SMILES: COc1cc(NS(=O)(=O)c2ccc(Cl)s2)c(C(=O)Nc2ccc(S(=O)(=O)N3CCSCC3)cc2)cc1OC [Example 206, 4,5-Dimethoxy-2-(5-chloro-thiophene-2-sulfonylamino)-N-(4-(thiomorpholine-4-sulfonyl)-phenyl)-benzamide]
n-fold stimulation ([1]; concentration c 50 μM): 19.3

The remaining lines, values ahead:

n-fold stimulation ([1]; concentration c 10 μM): 23.1
SMILES: Cc1noc(C)c1S(=O)(=O)Nc1ccc(Cl)cc1C(=O)Nc1ccc(S(=O)(=O)N2CCc3ccccc3C2)cc1 [Example 208, 5-Chloro-2-(3,5-dimethyl-isoxazole-4-sulfonylamino)-N-(4-(1,2,3,4-tetrahydro-isoquinoline-2-sulfonyl)-phenyl)-benzamide]

n-fold stimulation ([1]; concentration c 10 μM): 28.5
SMILES: Cc1noc(C)c1S(=O)(=O)Nc1ccc(Cl)cc1C(=O)Nc1ccc(S(=O)(=O)N(C)Cc2cccnc2)cc1 [Example 209, 5-Chloro-2-(3,5-dimethyl-isoxazde-4-sulfonylamino)-N-(4-(N-methyl-N-(pyridin-3-yl-methyl)-aminosulfonyl)-phenyl)-benzamide]

n-fold stimulation ([1]; concentration c 10 μM): 29.5
SMILES: Cc1noc(C)c1S(=O)(=O)Nc1ccc(Cl)cc1C(=O)Nc1ccc(S(=O)(=O)N2C[C@@H](C)O[C@@H](C)C2)cc1 [Example 222, 5-Chloro-2-(3,5-dimethyl-isoxazole-4-sulfonylamino)-N-(4-(cis-2,6-dimethyl-morpholine-4-sulfonyl)-phenyl)-benzamide]

n-fold stimulation ([1]; concentration c 10 μM): 27.1
SMILES: Cc1noc(C)c1S(=O)(=O)Nc1ccc(Cl)cc1C(=O)Nc1ccc(S(=O)(=O)N2CC(C)CC(C)C2)cc1 (stereo not drawn) [Example 223, 5-Chloro-2-(3,5-dimethyl-isoxazole-4-sulfonylamino)-N-(4-(3,5-dimethylpiperidine-1-sulfonyl)-phenyl)-benzamide]

n-fold stimulation ([1]; concentration c 50 μM): 27.8
SMILES: Cc1noc(C)c1S(=O)(=O)Nc1ccc(Cl)cc1C(=O)Nc1ccc(S(=O)(=O)N2CCOCC2)cc1 [Example 224, 5-Chloro-2-(3,5-dimethyl-isoxazole-4-sulfonylamino)-N-(4-(morpholine-4-sulfonyl)-phenyl)-benzamide]

n-fold stimulation ([1]; concentration c 10 μM): 13.4
SMILES: O=C(Nc1ccc(S(=O)(=O)c2ccccc2)cc1)c1cc(Cl)ccc1NS(=O)(=O)c1ccc(Cl)s1 [Example 225]

n-fold stimulation ([1]; concentration c 25 μM): 3.3
SMILES: C[C@@H]1CN(S(=O)(=O)c2ccc(NC(=O)c3ccc(Cl)cc3NS(=O)(=O)c3ccc(Cl)cc3)cc2)C[C@H](C)O1 [Example 226, 4-Chloro-2-(4-chloro-phenylsulfonylamino)-N-(4-(cis-2,6-dimethyl-morpholine-4-sulfonyl)-phenyl)-benzamide]
